Laboratory results published in patent US20250296953A1, “3,4-THIAZOLO-STEROIDS AND METHODS OF MAKING AND USING THE SAME” (Arkansas State University - Jonesboro, priority 2018, published 2025).
Like-named read-outs stand apart in the source and are kept apart here.

Key:
glioblastoma (SF-295) = assay: NCI 60 five dose screen; details: for GI50 / CC50: Homo sapiens; for GI50: SF-295; for CC50: SF-295, read-out: LC50; for TGI: SF-295 (CNS Cancer), five dose
SK-MEL-28 = assay: Melanoma cytotoxicity assay (resazurin); type: cell-based; details: SK-MEL-28 melanoma cells, 24 hours with compound, resazurin; concentration not given
Procedure, shortened: (§1)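 Viability read by resazurin fluorescence (ex 544, em 590 nm) after 6 h, following 24 h compound exposure of cells plated 24 h earlier (~4000/well). Triplicate means, minus medium blank, divided by DMSO control; IC50 derived from sigmoidal dose-response curves.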

SK-MEL-25 = assay: Melanoma cytotoxicity assay (resazurin); type: cell-based; details: SK-MEL-25 melanoma cells, 24 hours with compound, resazurin; concentration not given
Procedure, shortened: as §1

SK-MEL-5 = assay: Melanoma cytotoxicity assay (resazurin); type: cell-based; details: SK-MEL-5 melanoma cells, 24 hours with compound, resazurin; concentration not given
Procedure, shortened: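 Growth inhibition was scored by resazurin reduction over 6 h, read by fluorescence, after cells had been treated with serially diluted compounds for 24 h. Background from medium-only wells was subtracted and signal expressed relative to DMSO controls.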

[1] = test system: 60 different human tumor cell lines; details: for TGI: five dose
[2] = EKVX (Non-small Cell Lung Cancer)
[3] = HOP-62 (Non-small Cell Lung Cancer)
[4] = HOP-92 (Non-small Cell Lung Cancer)
[5] = MDA-MB-231/ATCC (Breast Cancer)
[6] = NCI-H23 (Non-small Cell Lung Cancer)
[7] = NCI-H226 (Non-small Cell Lung Cancer)
[8] = NCI-H322M (Non-small Cell Lung Cancer)
[9] = NCI-H460 (Non-small Cell Lung Cancer)
[10] = NCI-H522 (Non-small Cell Lung Cancer)
[11] = A549/ATCC (Non-small Cell Lung Cancer)

`C[C@]12CCc3sc(NCCc4ccccc4)nc3C1=CC[C@@H]1[C@@H]2CC[C@]2(C)C(=O)CC[C@@H]12` [IIa.2, (1S,2R,13R,14S,18S)-2,18-dimethyl-7-(2-phenylethylamino)-6-thia-8-azapentacyclo [11.7.0.02,10.05,9.014,18]icosa-5(9),7,10-trien-17-one] showed a GI50 (glioblastoma (SF-295)) of 18.9 µM, a CC50 (glioblastoma (SF-295)) greater than 100 µM and a TGI (glioblastoma (SF-295)) greater than 1.00E−4. The “SK-MEL-28 (% inhibition)” value (SK-MEL-28) was 79%, the “SK-MEL-25 (% inhibition)” value (SK-MEL-25) was 59% and the “SK-MEL-5 (% inhibition)” value (SK-MEL-5) was 73%. The LC50 [1] was “>l.00E−4”, the TGI ([1]; 786-0 (Renal Cancer)) was 9.61E−6 and the TGI ([1]; A498 (Renal Cancer)) was greater than 1.00E−4. For the same molecule, the TGI ([1]; ACHN (Renal Cancer)) was 3.75E−6, the TGI ([1]; BT-549 (Breast Cancer)) was greater than 1.00E−4 and the TGI ([1]; CAKI-1 (Renal Cancer)) was 1.11E−5. It also gave a TGI ([1]; CCRF-CEM (Leukemia)) of 4.04E−5, a TGI ([1]; COLO 205 (Colon Cancer)) of 8.77E−6 and a TGI ([1]; DU-145 (Prostate Cancer)) greater than 1.00E−4. For the same molecule, the TGI [1, 2] was greater than 1.00E−4, the TGI ([1]; HCC-2998 (Colon Cancer)) was greater than 1.00E−4 and the TGI ([1]; HCT-15 (Colon Cancer)) was 4.49E−6. The TGI ([1]; HCT-116 (Colon Cancer)) was 1.23E−5, the TGI ([1]; HL-60(TB) (Leukemia)) was 9.10E−6 and the TGI [1, 3] was greater than 1.00E−4. The TGI [1, 4] was 9.10E−6, the TGI ([1]; HS 578T (Breast Cancer)) was greater than 1.00E−4 and the TGI ([1]; HT29 (Colon Cancer)) was 8.11E−6. The TGI ([1]; IGROV1 (Ovarian Cancer)) was 6.18E−6, the TGI ([1]; K-562 (Leukemia)) was greater than 1.00E−4 and the TGI ([1]; KM12 (Colon Cancer)) was greater than 1.00E−4. The TGI ([1]; LOX IMVI (Melanoma)) was 3.17E−6, the TGI ([1]; M14 (Melanoma)) was greater than 1.00E−4 and the TGI ([1]; MALME-3M (Melanoma)) was 6.82E−6. The TGI ([1]; MCF7 (Breast Cancer)) was greater than 1.00E−4, the TGI [1, 5] was 2.14E−5 and the TGI ([1]; MDA-MB-435 (Melanoma)) was greater than 1.00E−4. For the same molecule, the TGI ([1]; MDA-MB-468 (Breast Cancer)) was 1.03E−5, the TGI ([1]; MOLT-4 (Leukemia)) was greater than 1.00E−4 and the TGI [1, 6] was greater than 1.00E−4. For the same molecule, the TGI [1, 7] was 6.57E−6, the TGI [1, 8] was greater than 1.00E−4 and the TGI [1, 9] was greater than 1.00E−4. For the same molecule, the TGI [1, 10] was 3.64E−6, the TGI ([1]; NCI/ADR-RES (Ovarian Cancer)) was 7.52E−6 and the TGI ([1]; OVCAR-3 (Ovarian Cancer)) was 4.83E−6. For the same molecule, the TGI ([1]; OVCAR-4 (Ovarian Cancer)) was greater than 1.00E−4, the TGI ([1]; OVCAR-5 (Ovarian Cancer)) was 6.59E−5 and the TGI ([1]; OVCAR-8 (Ovarian Cancer)) was greater than 1.00E−4. It also gave a TGI ([1]; PC-3 (Prostate Cancer)) greater than 1.00E−4, a TGI ([1]; RXF 393 (Renal Cancer)) of 4.49E−6 and a TGI ([1]; SF-268 (CNS Cancer)) greater than 1.00E−4. For the same molecule, the TGI ([1]; SK-MEL-2 (Melanoma)) was greater than 1.00E−4, the TGI ([1]; SK-MEL-5 (Melanoma)) was 5.27E−5 and the TGI ([1]; SK-MEL-28 (Melanoma)) was 1.89E−5. For the same molecule, the TGI ([1]; SK-OV-3 (Ovarian Cancer)) was greater than 1.00E−4, the TGI ([1]; SN12C (Renal Cancer)) was greater than 1.00E−4 and the TGI ([1]; SNB-19 (CNS Cancer)) was greater than 1.00E−4. For the same molecule, the TGI ([1]; SW-620 (Colon Cancer)) was 5.28E−6, the TGI ([1]; T-47D (Breast Cancer)) was 2.52E−5 and the TGI ([1]; TK-10 (Renal Cancer)) was greater than 1.00E−4. For the same molecule, the TGI ([1]; U251 (CNS Cancer)) was greater than 1.00E−4, the TGI ([1]; UACC-62 (Melanoma)) was 1.06E−5 and the TGI ([1]; UACC-257 (Melanoma)) was 7.98E−5. For the same molecule, the TGI ([1]; UO-31 (Renal Cancer)) was 2.51E−5.
In the case of `C[C@]12CCc3sc(Nc4ccc(F)cc4F)nc3C1=CC[C@@H]1[C@@H]2CC[C@]2(C)C(=O)CC[C@@H]12` [IIa.10, (1S,2R,13R,14S,18S)-7-(2,4-difluoroanilino)-2,18-dimethyl-6-thia-8-azapentacyclo[11.7.0.02,10.05,9.014,18]icosa-5(9),7,10-trien-17-one], the CC50 (glioblastoma (SF-295)) is reported as greater than 100 µM, the TGI (glioblastoma (SF-295)) is reported as greater than 1.00E−4 and the “SK-MEL-28 (% inhibition)” value (SK-MEL-28) is reported as 14%. The “SK-MEL-25 (% inhibition)” value (SK-MEL-25) was 34%, the “SK-MEL-5 (% inhibition)” value (SK-MEL-5) was 48% and the TGI ([1]; A498 (Renal Cancer)) was greater than 1.00E−4. It also gave a TGI [1, 11] greater than 1.00E−4, a TGI ([1]; BT-549 (Breast Cancer)) greater than 1.00E−4 and a TGI [1, 2] greater than 1.00E−4. The TGI ([1]; HS 578T (Breast Cancer)) was greater than 1.00E−4, the TGI ([1]; K-562 (Leukemia)) was greater than 1.00E−4 and the TGI ([1]; MOLT-4 (Leukemia)) was greater than 1.00E−4. The TGI [1, 8] was greater than 1.00E−4, the TGI ([1]; OVCAR-4 (Ovarian Cancer)) was greater than 1.00E−4 and the TGI ([1]; OVCAR-5 (Ovarian Cancer)) was greater than 1.00E−4. The TGI ([1]; OVCAR-8 (Ovarian Cancer)) was greater than 1.00E−4, the TGI ([1]; SK-OV-3 (Ovarian Cancer)) was greater than 1.00E−4 and the TGI ([1]; SNB-19 (CNS Cancer)) was greater than 1.00E−4. For the same molecule, the TGI ([1]; U251 (CNS Cancer)) was greater than 1.00E−4.
With `C[C@]12CCc3sc(Nc4cccc(O)c4)nc3C1=CC[C@@H]1[C@@H]2CC[C@]2(C)C(=O)CC[C@@H]12` [IIa.17, (1S,2R,13R,14S,18S)-7-(3-hydroxyanilino)-2,18-dimethyl-6-thia-8-azapentacyclo[11.7.0.02,10.05,9.014,18]icosa-5(9),7,10-trien-17-one] the GI50 (glioblastoma (SF-295)) was 8.98 µM, the CC50 (glioblastoma (SF-295)) was greater than 100 µM and the TGI (glioblastoma (SF-295)) was greater than 1.00E−4. For the same molecule, the “SK-MEL-28 (% inhibition)” value (SK-MEL-28) was 87%, the “SK-MEL-25 (% inhibition)” value (SK-MEL-25) was 79% and the LC50 [1] was “>l.00E−4”. For the same molecule, the TGI ([1]; 786-0 (Renal Cancer)) was 1.31E−5, the TGI ([1]; A498 (Renal Cancer)) was greater than 1.00E−4 and the TGI [1, 11] was greater than 1.00E−4. The TGI ([1]; ACHN (Renal Cancer)) was 2.95E−5, the TGI ([1]; CAKI-1 (Renal Cancer)) was 3.02E−5 and the TGI ([1]; CCRF-CEM (Leukemia)) was greater than 1.00E−4. The TGI ([1]; COLO 205 (Colon Cancer)) was 3.74E−5, the TGI ([1]; DU-145 (Prostate Cancer)) was 4.09E−5 and the TGI [1, 2] was greater than 1.00E−4. The TGI ([1]; HCC-2998 (Colon Cancer)) was 4.48E−5, the TGI ([1]; HCT-15 (Colon Cancer)) was 9.71E−6 and the TGI ([1]; HCT-116 (Colon Cancer)) was 4.17E−6. For the same molecule, the TGI [1, 3] was greater than 1.00E−4, the TGI [1, 4] was 6.79E−5 and the TGI ([1]; HS 578T (Breast Cancer)) was greater than 1.00E−4. For the same molecule, the TGI ([1]; HT29 (Colon Cancer)) was 1.76E−5, the TGI ([1]; IGROV1 (Ovarian Cancer)) was greater than 1.00E−4 and the TGI ([1]; K-562 (Leukemia)) was greater than 1.00E−4. The TGI ([1]; KM12 (Colon Cancer)) was 2.94E−5, the TGI ([1]; LOX IMVI (Melanoma)) was 1.08E−5 and the TGI ([1]; M14 (Melanoma)) was 5.09E−5. For the same molecule, the TGI ([1]; MALME-3M (Melanoma)) was greater than 1.00E−4, the TGI ([1]; MCF7 (Breast Cancer)) was 3.28E−5 and the TGI [1, 5] was greater than 1.00E−4. For the same molecule, the TGI ([1]; MDA-MB-435 (Melanoma)) was greater than 1.00E−4, the TGI ([1]; MDA-MB-468 (Breast Cancer)) was 1.46E−5 and the TGI ([1]; MOLT-4 (Leukemia)) was greater than 1.00E−4. The TGI [1, 6] was greater than 1.00E−4, the TGI [1, 7] was 4.50E−5 and the TGI [1, 8] was greater than 1.00E−4. For the same molecule, the TGI [1, 9] was 2.79E−5, the TGI [1, 10] was 2.36E−5 and the TGI ([1]; NCI/ADR-RES (Ovarian Cancer)) was greater than 1.00E−4. The TGI ([1]; OVCAR-3 (Ovarian Cancer)) was 5.08E−5, the TGI ([1]; OVCAR-4 (Ovarian Cancer)) was greater than 1.00E−4 and the TGI ([1]; OVCAR-5 (Ovarian Cancer)) was greater than 1.00E−4. It also gave a TGI ([1]; OVCAR-8 (Ovarian Cancer)) greater than 1.00E−4, a TGI ([1]; PC-3 (Prostate Cancer)) of 6.37E−5 and a TGI ([1]; RXF 393 (Renal Cancer)) of 1.42E−5. It also gave a TGI ([1]; SF-268 (CNS Cancer)) of 7.00E−5, a TGI ([1]; SK-MEL-2 (Melanoma)) of 6.08E−5 and a TGI ([1]; SK-MEL-5 (Melanoma)) of 2.60E−5. For the same molecule, the TGI ([1]; SK-MEL-28 (Melanoma)) was greater than 1.00E−4, the TGI ([1]; SK-OV-3 (Ovarian Cancer)) was greater than 1.00E−4 and the TGI ([1]; SN12C (Renal Cancer)) was 2.53E−5. For the same molecule, the TGI ([1]; SNB-19 (CNS Cancer)) was greater than 1.00E−4, the TGI ([1]; SNB-75 (CNS Cancer)) was 7.25E−5 and the TGI ([1]; SW-620 (Colon Cancer)) was 1.56E−5. The TGI ([1]; T-47D (Breast Cancer)) was greater than 1.00E−4, the TGI ([1]; TK-10 (Renal Cancer)) was 5.48E−5 and the TGI ([1]; U251 (CNS Cancer)) was 1.93E−5. For the same molecule, the TGI ([1]; UACC-62 (Melanoma)) was 2.96E−4, the TGI ([1]; UACC-257 (Melanoma)) was 9.45E−5 and the TGI ([1]; UO-31 (Renal Cancer)) was 1.94E−5.
